Reference: PMC9500072, “Topical application of an irreversible small molecule inhibitor of lysyl oxidases ameliorates skin scarring and fibrosis” (Nature Communications, 2022)
Read-outs that look alike come from different tables or passages of the source.

Columns and labels:
Format in all cases: biochemical
Dog Recombinant LOXL2 = target: T1, Dog Recombinant LOXL2 (Canis lupus familiaris, UniProt A0A8I3P9Y5); experiment: Amine oxidase inhibition profile, dog LOXL2
T1 construct: made in house; host or cells: HEK-293 clones (provided by Dr. Fernando Rodríguez Pascual)
T1 sequence (A0A8I3P9Y5 1-777): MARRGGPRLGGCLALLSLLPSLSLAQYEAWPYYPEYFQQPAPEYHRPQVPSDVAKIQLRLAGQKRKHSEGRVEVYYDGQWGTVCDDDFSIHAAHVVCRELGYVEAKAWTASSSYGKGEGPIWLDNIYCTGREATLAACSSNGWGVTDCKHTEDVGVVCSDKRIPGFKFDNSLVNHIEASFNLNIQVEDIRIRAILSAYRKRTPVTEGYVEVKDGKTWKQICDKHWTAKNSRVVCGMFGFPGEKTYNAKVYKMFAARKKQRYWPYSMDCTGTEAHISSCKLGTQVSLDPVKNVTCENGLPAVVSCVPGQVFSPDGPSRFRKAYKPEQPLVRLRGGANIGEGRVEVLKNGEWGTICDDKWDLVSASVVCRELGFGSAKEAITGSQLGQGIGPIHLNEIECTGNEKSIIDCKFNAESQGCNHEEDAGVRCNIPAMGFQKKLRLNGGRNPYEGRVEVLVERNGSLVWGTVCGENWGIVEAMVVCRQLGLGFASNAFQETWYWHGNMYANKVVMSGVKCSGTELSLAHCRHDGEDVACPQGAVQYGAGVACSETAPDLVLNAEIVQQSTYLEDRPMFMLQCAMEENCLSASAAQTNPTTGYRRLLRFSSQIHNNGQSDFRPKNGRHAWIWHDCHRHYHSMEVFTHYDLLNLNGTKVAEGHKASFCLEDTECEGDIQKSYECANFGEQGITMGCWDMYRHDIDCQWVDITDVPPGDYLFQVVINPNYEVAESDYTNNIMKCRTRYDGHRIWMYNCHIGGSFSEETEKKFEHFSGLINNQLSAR

Human Recombinant SSAO = target: T2, Human Recombinant SSAO (Homo sapiens, UniProt Q16853); experiment: Amine oxidase inhibition profile, SSAO
T2 sequence (Q16853 1-763): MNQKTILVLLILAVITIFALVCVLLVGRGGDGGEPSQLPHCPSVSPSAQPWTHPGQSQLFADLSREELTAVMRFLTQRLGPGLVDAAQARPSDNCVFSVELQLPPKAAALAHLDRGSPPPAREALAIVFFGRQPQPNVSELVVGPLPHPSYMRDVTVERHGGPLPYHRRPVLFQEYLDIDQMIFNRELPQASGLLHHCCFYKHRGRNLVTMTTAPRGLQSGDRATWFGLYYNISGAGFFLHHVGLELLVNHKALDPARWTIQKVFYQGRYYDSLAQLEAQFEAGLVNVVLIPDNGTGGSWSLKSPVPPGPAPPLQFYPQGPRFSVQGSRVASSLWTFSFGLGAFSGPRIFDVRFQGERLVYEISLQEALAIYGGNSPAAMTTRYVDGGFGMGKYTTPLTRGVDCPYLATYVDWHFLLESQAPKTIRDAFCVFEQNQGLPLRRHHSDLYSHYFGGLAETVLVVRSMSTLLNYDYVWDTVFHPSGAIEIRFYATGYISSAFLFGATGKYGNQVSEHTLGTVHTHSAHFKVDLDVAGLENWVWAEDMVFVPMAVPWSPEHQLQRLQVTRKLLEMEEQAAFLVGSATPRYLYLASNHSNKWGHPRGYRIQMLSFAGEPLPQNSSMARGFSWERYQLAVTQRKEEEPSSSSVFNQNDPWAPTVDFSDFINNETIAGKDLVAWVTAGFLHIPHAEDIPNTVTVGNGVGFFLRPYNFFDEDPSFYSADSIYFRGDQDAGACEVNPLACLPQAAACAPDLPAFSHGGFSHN
Source text: (§1) Supplem entary Materi als:
(§2) Supplementary Table S1: Amine oxidase inhibition profile of PXS -4787, PXS-6302 and
(§3) Supplementary Table S2: Perm eability profile of PXS -6302.

Human Recombinant MAO-B = target: T3, Human Recombinant MAO-B (Homo sapiens, UniProt P27338); experiment: Amine oxidase inhibition profile, MAO-B
T3 sequence (P27338 1-520): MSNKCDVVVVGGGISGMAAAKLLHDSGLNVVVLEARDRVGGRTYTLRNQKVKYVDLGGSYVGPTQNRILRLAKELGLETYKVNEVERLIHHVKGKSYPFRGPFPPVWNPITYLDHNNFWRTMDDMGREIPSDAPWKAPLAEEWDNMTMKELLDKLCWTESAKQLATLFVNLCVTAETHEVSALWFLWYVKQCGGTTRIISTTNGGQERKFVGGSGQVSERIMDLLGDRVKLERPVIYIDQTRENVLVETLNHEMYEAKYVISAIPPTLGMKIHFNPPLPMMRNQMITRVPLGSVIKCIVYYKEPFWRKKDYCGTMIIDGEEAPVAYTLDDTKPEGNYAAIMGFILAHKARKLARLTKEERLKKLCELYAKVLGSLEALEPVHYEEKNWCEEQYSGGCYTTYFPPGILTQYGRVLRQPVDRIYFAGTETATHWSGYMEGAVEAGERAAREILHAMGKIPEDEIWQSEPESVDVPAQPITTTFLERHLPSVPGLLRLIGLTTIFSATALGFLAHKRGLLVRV
Source text: as §1, §2, §3

Human Recombinant MAO-A = target: T4, Human Recombinant MAO-A (Homo sapiens, UniProt P21397); experiment: Amine oxidase inhibition profile, MAO-A
T4 sequence (P21397 1-527): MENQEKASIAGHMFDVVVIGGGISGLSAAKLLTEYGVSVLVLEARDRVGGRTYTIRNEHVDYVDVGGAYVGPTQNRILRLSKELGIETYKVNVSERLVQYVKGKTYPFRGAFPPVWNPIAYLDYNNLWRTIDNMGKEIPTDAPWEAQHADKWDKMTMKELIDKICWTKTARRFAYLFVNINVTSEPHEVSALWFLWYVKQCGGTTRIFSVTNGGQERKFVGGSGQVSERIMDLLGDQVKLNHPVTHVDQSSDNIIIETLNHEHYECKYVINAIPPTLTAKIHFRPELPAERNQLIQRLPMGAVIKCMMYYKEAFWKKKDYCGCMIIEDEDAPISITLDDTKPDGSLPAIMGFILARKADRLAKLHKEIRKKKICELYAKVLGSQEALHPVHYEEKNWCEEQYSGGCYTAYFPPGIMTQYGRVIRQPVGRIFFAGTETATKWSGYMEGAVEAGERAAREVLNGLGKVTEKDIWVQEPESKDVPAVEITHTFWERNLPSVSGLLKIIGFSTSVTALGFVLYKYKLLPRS
Source text: as §1, §2, §3

[1] = read-out: Recombinant SSAO IC50
[2] = read-out: Recombinant MAO-B IC50
[3] = read-out: Recombinant MAO-A IC50

Row | SMILES | Dog Recombinant LOXL2 pIC50±SD (Dog Recombinant LOXL2) | IC50 (Dog Recombinant LOXL2) | Recombinant SSAO pIC50 (Human Recombinant SSAO) | IC50 (Human Recombinant SSAO; [1]) | Recombinant MAO-B pIC50 (Human Recombinant MAO-B) | IC50 (Human Recombinant MAO-B; [2]) | Recombinant MAO-A pIC50 (Human Recombinant MAO-A) | IC50 (Human Recombinant MAO-A; [3]) | IC50 (Human Recombinant SSAO) | IC50 (Human Recombinant MAO-B) | IC50 (Human Recombinant MAO-A)
1 | N#CCCN [BAPN, β-aminoproprionitrile, reference compound] | 6.3 ± 0.1 | 0.48 µM | < 4 | > 100 µM | < 4 | > 100 µM | < 4.5 | > 30 µM | – | – | –
2 | NC/C=C(\F)CS(=O)(=O)c1ccccc1 [PXS-4787] | – | 0.62 µM | – | > 100 µM | – | > 100 µM | – | > 30 µM | – | – | –
3 | NC/C=C(\F)C(F)(F)S(=O)(=O)c1ccccc1 [PXS-6302] | – | 0.34 µM | – | – | – | – | – | – | > 30 µM | > 30 µM | > 30 µM
